Reference: patent US11254663B2 (BRISTOL-MYERS SQUIBB COMPANY, priority 2019, dated 2022)

Target: FXR (Homo sapiens (Human), UniProt Q96RI1)
Assay: transient human FXR/Gal4-luciferase reporter assay
Assay type: cell-based
Conditions: not given
Summary of the method: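 HEK293 cells stably carrying a 5×Gal4 response element–firefly luciferase reporter were transiently transfected overnight with a Gal4 DBD–human FXR LBD fusion plasmid. Compound was added in DMSO and cells were incubated overnight at 37 °C, 5% CO2. Activity was read as Steady-Glo luminescence.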

FXR, sequence (Q96RI1 262-486): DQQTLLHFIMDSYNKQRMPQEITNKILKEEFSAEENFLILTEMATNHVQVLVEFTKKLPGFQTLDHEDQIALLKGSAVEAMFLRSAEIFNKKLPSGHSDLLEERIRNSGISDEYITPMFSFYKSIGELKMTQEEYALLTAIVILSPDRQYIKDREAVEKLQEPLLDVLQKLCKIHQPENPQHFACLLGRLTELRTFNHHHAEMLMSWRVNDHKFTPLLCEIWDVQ

Compound | EC50 [µM]
CC(C)(C)c1nc(C23CCC(CN(C(=O)C4CC(O)(C(F)(F)F)C4)c4cccc(-c5ccc(OC(F)F)cc5)c4)(CC2)CC3)no1 [Example 516, (1S,3S)—N-((4-(5-(tert-butyl)-1,2,4-oxadiazol-3-yl)bicyclo[2.2.2]octan-1-yl)methyl)-N-(4′-(difluoromethoxy)-[1,1′-biphenyl]-3-yl)-3-hydroxy-3-(trifluoromethyl)cyclobutane-1-carboxamide] | 0.094
CC1(O)CC(C(=O)N(CC23CCC(c4noc(C(C)(C)C)n4)(CC2)CC3)c2cccc(-c3ccc(OC(F)F)cc3)c2)C1 [Example 517, (1S,3S)—N-((4-(5-(tert-butyl)-1,2,4-oxadiazol-3-yl)bicyclo[2.2.2]octan-1-yl)methyl)-N-(4′-(difluoromethoxy)-[1,1′-biphenyl]-3-yl)-3-hydroxy-3-methylcyclobutane-1-carboxamide] | 0.255
CCOc1ncc(-c2cccc(N(CC34CCC(c5noc(C6(C)COC6)n5)(CC3)CC4)C(=O)[C@H]3C[C@@](C)(O)C3)c2)cn1 [Example 519, (1S,3S)—N-(3-(2-ethoxypyrimidin-5-yl)phenyl)-3-hydroxy-3-methyl-N-((4-(5-(3-methyloxetan-3-yl)-1,2,4-oxadiazol-3-yl)bicyclo[2.2.2]octan-1-yl)methyl)cyclobutane-1-carboxamide] | 0.504
CCOc1ncc(-c2cccc(N(CC34CCC(c5noc(C6(C)COC6)n5)(CC3)CC4)C(=O)[C@H]3C[C@](O)(C(F)(F)F)C3)c2)cn1 [Example 520, (1S,3S)—N-(3-(2-ethoxypyrimidin-5-yl)phenyl)-3-hydroxy-N-((4-(5-(3-methyloxetan-3-yl)-1,2,4-oxadiazol-3-yl)bicyclo[2.2.2]octan-1-yl)methyl)-3-(trifluoromethyl)cyclobutane-1-carboxamide] | 0.449
O=C(N(CC12CCC(c3noc(C4(C(F)(F)F)CC4)n3)(CC1)CC2)c1cccc(-c2ccc(OC(F)F)cc2)c1)C12CC(F)(C1)C2 [Example 522, N-(4′-(difluoromethoxy)-[1,1′-biphenyl]-3-yl)-3-fluoro-N-((4-(5-(1-(trifluoromethyl)cyclopropyl)-1,2,4-oxadiazol-3-yl)bicyclo[2.2.2]octan-1-yl)methyl)bicyclo[1.1.1]pentane-1-carboxamide] | 0.069
CS(=O)(=O)Nc1ccc(-c2cccc(N(CC34CCC(c5noc(C6(C(F)(F)F)CC6)n5)(CC3)CC4)C(=O)C34CC(F)(C3)C4)c2)cc1 [Example 523, 3-fluoro-N-(4′-(methylsulfonamido)-[1,1′-biphenyl]-3-yl)-N-((4-(5-(1-(trifluoromethyl)cyclopropyl)-1,2,4-oxadiazol-3-yl)bicyclo[2.2.2]octan-1-yl)methyl)bicyclo[1.1.1]pentane-1-carboxamide] | 0.189
Cc1nc2ccc(-c3cccc(N(CC45CCC(c6noc(C7(C(F)(F)F)CC7)n6)(CC4)CC5)C(=O)C45CC(F)(C4)C5)c3)cc2s1 [Example 524, 3-fluoro-N-(3-(2-methylbenzo[d]thiazol-6-yl)phenyl)-N-((4-(5-(1-(trifluoromethyl)cyclopropyl)-1,2,4-oxadiazol-3-yl)bicyclo[2.2.2]octan-1-yl)methyl)bicyclo[1.1.1]pentane-1-carboxamide] | 0.119
CCOc1ncc(-c2cccc(N(CC34CCC(c5noc(C6(C(F)(F)F)CC6)n5)(CC3)CC4)C(=O)C34CC(F)(C3)C4)c2)cn1 [Example 525, N-(3-(2-ethoxypyrimidin-5-yl)phenyl)-3-fluoro-N-((4-(5-(1-(trifluoromethyl)cyclopropyl)-1,2,4-oxadiazol-3-yl)bicyclo[2.2.2]octan-1-yl)methyl)bicyclo[1.1.1]pentane-1-carboxamide] | 0.142
O=C(N(CC12CCC(c3noc(C4(C(F)(F)F)CC4)n3)(CC1)CC2)c1cccc(-c2cnc3nc(C4CC4)sc3c2)c1)C12CC(F)(C1)C2 [Example 526, N-(3-(2-cyclopropylthiazolo[4,5-b]pyridin-6-yl)phenyl)-3-fluoro-N-((4-(5-(1-(trifluoromethyl)cyclopropyl)-1,2,4-oxadiazol-3-yl)bicyclo[2.2.2]octan-1-yl)methyl) bicyclo[1.1.1]pentane-1-carboxamide] | 0.497
CC(F)(F)c1nc(C23CCC(CN(C(=O)C45CC(F)(C4)C5)c4cccc(-c5ccc(OC(F)F)cc5)c4)(CC2)CC3)no1 [Example 528, N-((4-(5-(1,1-difluoroethyl)-1,2,4-oxadiazol-3-yl)bicyclo[2.2.2]octan-1-yl)methyl)-N-(4′-(difluoromethoxy)-[1,1′-biphenyl]-3-yl)-3-fluorobicyclo[1.1.1]pentane-1-carboxamide] | 0.073
CCOc1ncc(-c2cccc(N(CC34CCC(c5noc(C(C)(F)F)n5)(CC3)CC4)C(=O)C34CC(F)(C3)C4)c2)cn1 [Example 529, N-((4-(5-(1,1-difluoroethyl)-1,2,4-oxadiazol-3-yl)bicyclo[2.2.2]octan-1-yl)methyl)-N-(3-(2-ethoxypyrimidin-5-yl)phenyl)-3-fluorobicyclo[1.1.1]pentane-1-carboxamide] | 0.106
CC(F)(F)c1nc(C23CCC(CN(C(=O)C45CC(F)(C4)C5)c4cccc(-c5cnc6nc(C7CC7)sc6c5)c4)(CC2)CC3)no1 [Example 530, N-(3-(2-cyclopropylthiazolo[4,5-b]pyridin-6-yl)phenyl)-N-((4-(5-(1,1-difluoroethyl)-1,2,4-oxadiazol-3-yl)bicyclo[2.2.2]octan-1-yl)methyl)-3-fluorobicyclo[1.1.1]pentane-1-carboxamide] | 0.145
CCOc1ccc(-c2ccnc(N(CC34CCC(c5noc(C(C)(C)C)n5)(CC3)CC4)C(=O)C34CC(F)(C3)C4)c2)cc1 [Example 532, N-((4-(5-(tert-butyl)-1,2,4-oxadiazol-3-yl)bicyclo[2.2.2]octan-1-yl)methyl)-N-(4-(4-ethoxyphenyl)pyridin-2-yl)-3-fluorobicyclo[1.1.1]pentane-1-carboxamide] | 0.086
CC(C)(C)c1nc(C23CCC(CN(C(=O)C45CC(F)(C4)C5)c4cc(-c5ccc(OC(F)F)cc5)ccn4)(CC2)CC3)no1 [Example 533, N-((4-(5-(tert-butyl)-1,2,4-oxadiazol-3-yl)bicyclo[2.2.2]octan-1-yl)methyl)-N-(4-(4-(difluoromethoxy)phenyl)pyridin-2-yl)-3-fluorobicyclo[1.1.1]pentane-1-carboxamide] | 0.026
CC(C)(C)c1nc(C23CCC(CN(C(=O)C45CC(F)(C4)C5)c4cc(-c5ccc(NS(C)(=O)=O)cc5)ccn4)(CC2)CC3)no1 [Example 534, N-((4-(5-(tert-butyl)-1,2,4-oxadiazol-3-yl)bicyclo[2.2.2]octan-1-yl)methyl)-3-fluoro-N-(4-(4-(methylsulfonamido)phenyl)pyridin-2-yl)bicyclo[1.1.1]pentane-1-carboxamide] | 0.077

Same assay, conditions: Gal4-hFXR fusion construct, HEK293 reporter cells; response relative to 8 μM GW-4064

EC50 [µM] | Compound
0.357 | CC1(C(=O)N(CC23CCC(c4noc(C(C)(C)C)n4)(CC2)CC3)c2cccc(-c3ccc(OC(F)F)cc3)c2)COC1 [Example 515, N-((4-(5-(tert-butyl)-1,2,4-oxadiazol-3-yl)bicyclo[2.2.2]octan-1-yl)methyl)-N-(4′-(difluoromethoxy)-[1,1′-biphenyl]-3-yl)-3-methyloxetane-3-carboxamide]
1.29 | CCOc1ncc(-c2cccc(N(CC34CCC(c5noc(C6(C)COC6)n5)(CC3)CC4)C(=O)[C@H]3C[C@@H](OC)C3)c2)cn1 [Example 518, (cis)-N-(3-(2-ethoxypyrimidin-5-yl)phenyl)-3-methoxy-N-((4-(5-(3-methyloxetan-3-yl)-1,2,4-oxadiazol-3-yl)bicyclo[2.2.2]octan-1-yl)methyl)cyclobutane-1-carboxamide]
0.112 | CCOc1ccc(-c2cccc(N(CC34CCC(c5noc(C6(C(F)(F)F)CC6)n5)(CC3)CC4)C(=O)C34CC(F)(C3)C4)c2)cc1 [Example 521, N-(4′-ethoxy-[1,1′-biphenyl]-3-yl)-3-fluoro-N-((4-(5-(1-(trifluoromethyl)cyclopropyl)-1,2,4-oxadiazol-3-yl)bicyclo[2.2.2]octan-1-yl)methyl)bicyclo[1.1.1]pentane-1-carboxamide]
0.103 | CCOc1ccc(-c2cccc(N(CC34CCC(c5noc(C(C)(F)F)n5)(CC3)CC4)C(=O)C34CC(F)(C3)C4)c2)cc1 [Example 527, N-((4-(5-(1,1-difluoroethyl)-1,2,4-oxadiazol-3-yl)bicyclo[2.2.2]octan-1-yl)methyl)-N-(4′-ethoxy-[1,1′-biphenyl]-3-yl)-3-fluorobicyclo[1.1.1]pentane-1-carboxamide]
0.159 | CCOc1ncc(-c2ccnc(N(CC34CCC(c5noc(C(C)(C)C)n5)(CC3)CC4)C(=O)C34CC(F)(C3)C4)c2)cn1 [Example 531, N-((4-(5-(tert-butyl)-1,2,4-oxadiazol-3-yl)bicyclo[2.2.2]octan-1-yl)methyl)-N-(4-(2-ethoxypyrimidin-5-yl)pyridin-2-yl)-3-fluorobicyclo[1.1.1]pentane-1-carboxamide]

Compound | EC50 [µM]
CC(C)(C)c1nc(C23CCC(CN(C(=O)C4CC(O)(C(F)(F)F)C4)c4cccc(-c5ccc(NS(C)(=O)=O)cc5)c4)(CC2)CC3)no1 [Example 513, (1S,3S)—N-((4-(5-(tert-butyl)-1,2,4-oxadiazol-3-yl)bicyclo[2.2.2]octan-1-yl)methyl)-3-hydroxy-N-(4′-(methylsulfonamido)-[1,1′-biphenyl]-3-yl)-3-(trifluoromethyl)cyclobutane-1-carboxamide] | 0.922
CO[C@H]1C[C@@H](C(=O)N(CC23CCC(c4noc(C(C)(C)C)n4)(CC2)CC3)c2cccc(-c3ccc(NS(C)(=O)=O)cc3)c2)C1 [Example 514, (1S,3S)—N-((4-(5-(tert-butyl)-1,2,4-oxadiazol-3-yl)bicyclo[2.2.2]octan-1-yl)methyl)-3-methoxy-N-(4′-(methylsulfonamido)-[1,1′-biphenyl]-3-yl)cyclobutane-1-carboxamide] | 2.26
